The test system of series [1] is De Novo Lipogenesis (DNL) in liver. In words: In vivo De Novo Lipogenesis study. Details: species or system Male Sprague Dawley (SD) rats. The conditions noted are these: Rattus norvegicus; male SD rats, single p.o. dose, acetate i.p. 3h post-dose, livers collected 1h later; read-out: effective dose that decreased in vivo DNL by 50% (ED50). The protocol:
The DNL inhibitory activity of the compound of Example 1 was assessed in vivo as follows.
The studies were performed at Covance Laboratories (Madison, Wis.) in compliance with Institutional Animal Care and Use Committee protocols. Male Sprague Dawley (SD) rats were purchased from Envigo RMS, INC and were acclimatized for 7 days prior to study initiation. Animals were provided ad libitum access to food and water for the duration of the study. On the day of the experiment, animals were randomized into dose groups (n=6 rats/group) based on body weight and received a single p.o dose of vehicle (0.1% Tween 80 in water, pH 7.5-8.0) or a dose range of the compound of Example 1 (0.1 μg/kg-1 mg/kg). 3h post-dose (Example 1), the animals received a single i.p bolus of […] (Perkin Elmer, 32 μCi/animal) and were sacrificed 1h later, and livers were collected for DNL analysis. An approx. 0.75 g piece of liver was saponified at 70° C. for 120 min in 1.5 mL of 2.5M NaOH followed by addition of 2.5 mL of ethanol, vigorous mixing. […] Residual ether fractions were dissolved in at least 5 mL of Ultima Gold XR scintillation fluid and analyzed by liquid scintillation counting (LSC). The resulting dpm ([…]) values were normalized to tissue weight and the data were expressed as a percent of vehicle. […]

A short description of series [2]: Rat liver/plasma ratio determination. In kind it is in vivo, male Sprague-Dawley (SD) rats. The settings on record: male SD rats, single oral dose 5 mg/kg or 10 mg/kg. As for the experimental part:
Liver to plasma (L/P) ratios of certain example compounds were determined in male Sprague-Dawley (SD) rats 2 hours and 24 hours after their administration.
The in vivo phases of the rat L/P ratio determinations for example compounds were conducted at Covance Laboratories (Madison, Wis.) or Charles River Laboratories (Worcester, Wash.). Animals were housed and handled in accordance with the Guide for the Care and Use of Laboratory Animals, Institute of Laboratory Animal Resources. The protocols were reviewed and approved by Institutional Animal Care and Use Committees (IACUC). Male Sprague-Dawley (SD) rats weighing approximately 300 g were fasted overnight prior to dosing and up to 4 hours after dosing. Each example compound was dosed at a single dose at 5 mg/kg or 10 mg/kg orally by gavage to male SD rats (n=3 rats/group). The aqueous formulation contained ethyl alcohol and polyethylene glycol 300. Approximately 100 μL plasma and 0.5 g liver samples were collected from each animal either 2 hours or 24 hours after dosing. The liver samples were homogenized by hard tissue homogenizer probes (Omni International, Kennesaw, Ga.) with 4× extraction buffer. For LC-MS/MS analysis, plasma and liver samples were prepared through protein precipitation extraction and analyzed on a Scitex API 5500 or 6500 LC-MS/MS instrument (Applied Biosystems, Foster City, Calif.). Analyte was eluted on a 1.7 μm 50×2.1 mm Acquity UPLC BEH C18 column (Waters, Milford, Mass.) using mobile phase containing 0.1% formic acid and a linear gradient from 55% to 95% acetonitrile at a flow rate of 800 μL/min. A liver/plasma ratio for each compound was calculated using the liver and plasma concentrations at the corresponding time point (2 hours or 24 hours). Noncompartmental pharmacokinetic parameters were calculated using Phoenix 32 (Pharsight Corporation, Mountain View, Calif.).
To assess the liver loading potential of the compounds, rat liver/plasma ratios (Rat L/P Ratio) values were determined for example compounds and are listed below in Table 1 for 2 hour and 24 hour timepoints (Rat L/P Ratio (2h/24h)).

The subject of a further series is OATP. Kind of series: Liver partitioning / plasma PK study with and without rifampicin (pan-OATP inhibitor). The class given is in vivo, cynomolgus monkeys. The settings on record: male, cynomolgus monkey, plasma, with rifampicin 30 mg/kg IV (pan-OATP inhibitor), cynomolgus monkeys, 5 mg/kg oral, Pretreatment with Rifampicin 30 mg/kg. The protocol:
(§1) To further investigate the liver partitioning properties of the compound of Example 1, the compound was co-administered with rifampicin (RIF, pan-OATP inhibitor) in cynomolgus monkeys in vivo and hepatic uptake experiments were performed in monkey hepatocytes in vitro. […] Therefore the coadministration experiments as described below in more detail were conducted to administer Example 1 compound orally (5 mg/kg) in the absence and presence of IV administration of RIF (30 mg/kg).
(§2) To assess the OATP (organic anion transporting polypeptides)-mediated liver specific delivery of the Example 1 compound, plasma pharmacokinetics (PK) was evaluated in cynomolgus monkeys. The in-life phase of the cyno PK studies was conducted at Covance Laboratories (Madison, Wis.). Animals were housed and handled in accordance with the Guide for the Care and Use of Laboratory Animals, Institute of Laboratory Animal Resources. The protocols were reviewed and approved by the Institutional Animal Care and Use Committees (IACUC). Male Cynomolgus monkeys weighing approximately 3 kg were used for the in-life portion of the PK studies. The animals were fasted overnight prior to dosing and up to 4 hours after dosing. The animals were administered with the test compound (Example 1) alone or coadministered with 30 mg/kg rifampicin prior to test compound administration at 5 mg/kg via oral gavage (3 monkeys per group). The aqueous formulation contains dimethyl sulfoxide, kolliphor, labrasol and propylene glycol. Approximately 0.5 mL blood samples were collected from each animal and analyzed for test compound (Example 1) concentrations. For LC-MS/MS analysis, plasma samples were prepared through protein precipitation extraction and analyzed on a Sciex API 5500 LC-MS/MS instrument (Applied Biosystems, Foster City, Calif.). Analyte was eluted on a 1.7 μm 50×2.1 mm Acquity UPLC BEH C18 column (Waters, Milford, Mass.) using mobile phases containing 0.1% formic acid and a linear gradient from 60% to 95% acetonitrile at a flow rate of 800 μL/min. Noncompartmental pharmacokinetic parameters were calculated using Phoenix 32 (Pharsight Corporation, Mountain View, Calif.). […]

Experiment in series [3]: as above
In kind it is in vivo, cynomolgus monkeys. The protocol:
as §1, §2

The mark [4] stands for this setting: decrease (↓) with rifampicin pretreatment vs no pretreatment.
Where [5] appears, read: increase (↑) with rifampicin pretreatment vs no pretreatment.
Where [6] appears, read: male, cynomolgus monkey, plasma, cynomolgus monkeys, 5 mg/kg oral, No-Pre-treatment.

`COc1ccccc1[C@H](Cn1c(=O)n(C(C)(C)C(=O)NS(=O)(=O)C2(C)CC2)c(=O)c2c(C)c(-c3ncco3)sc21)O[C@@H]1C[C@H]2CC[C@@H](C1)O2` [Example 1, 2-(1-((R)-2-(((1R,3s,5S)-8-oxabicyclo[3.2.1]octan-3-yl)oxy)-2-(2-methoxyphenyl)ethyl)-5-methyl-6-(oxazol-2-yl)-2,4-dioxo-1,4-dihydrothieno[2,3-d]pyrimidin-3(2H)-yl)-2-methyl-N-((1-methylcyclopropyl)sulfonyl)propanamide]: the 50% effective dose (ED50) in series [1] was 0.08 mg/kg. In addition, the “L/P Ratio (2 h)” value in series [2] (liver to plasma concentration 2 hours after dosing) was 520. Moreover, in series [2] (liver to plasma concentration 24 hours after dosing), the “L/P Ratio (24 h)” value came to 1526. In addition, in the series with OATP, the AUC came to 48.5 µM·h, the apparent clearance CL/F is 2.5 mL/min/kg and the peak concentration (Cmax) is 14 µM. Also, the Vd/F in the series on OATP (read-out: Vz/F) is 0.44 L/kg. Further, the “plasma exposures with RIF treatment relative to monkeys not treated with RIF” value in series [3] (5 mg/kg oral, RIF 30 mg/kg IV) is “significantly increased”. In series [3] (setting [4]), the “CL/F Fold-Change” value was “↓ 299” and the “Vz/F Fold-Change” value is “↓ 165”. Further, in series [3] (setting [5]), the “AUC Fold-Change” value is listed as “↑ 165” and the “Cmax Fold-Change” value is reported as “↑ 86”. For the same molecule, in series [3] (setting [6]), the AUC is 0.294 µM·h, the CL/F was 748 mL/min/kg and the Cmax stood at 0.162 µM. In series [3] (male, cynomolgus monkey, plasma, cynomolgus monkeys, 5 mg/kg oral, No-Pre-treatment, read-out: Vz/F), the Vd/F stood at 72.7 L/kg.

(Values after US11352371B2, “Thienopyrimidine derivatives as ACC inhibitors and uses thereof” (Gilead Sciences, Inc., priority 2019, dated 2022).)
